Measurements reported in article PMC12040169 (PLOS Biology, 2025).

Assay: in vitro
Settings: human, hela cells, % viability

| Structure (SMILES) | viability at 28.5 h, 10 µM [%] |
| --- | --- |
| c1ccc(-c2cnc(C3CCCCC3)o2)cc1 [CBK008192] | 83.1 |
| COc1ccc2[nH]cc(CCNC(=O)c3ccc4nc[nH]c4c3)c2c1 [CBK122714] | 94.5 |
| CCC(=O)N1CCc2cc(C(O)CN3CCCC3)ccc21 (centres unmarked) [CBK283110] | 97.7 |
| O=C(NCc1cccnc1)C1CCC(Cn2c(=S)[nH]c3ccccc3c2=O)CC1 (centres unmarked) [CBK266678] | 87.9 |
| O=C(N/N=C/c1c[nH]c2ccccc12)c1cc(-c2ccc3ccccc3c2)[nH]n1 [CBK262885] | 54.8 |
| c1ccc2nc(N3CCCC3)c(OCc3ccsc3)nc2c1 [CBK115819] | 90.2 |
| O=C(NC1CC1)c1cnoc1-c1ccccc1 [CBK154935] | 106 |
| CC(=O)C(CC(=O)O)C1=C(O)CC(C)(C)CC1=O (centres unmarked) [CBK287127] | 91.5 |
| Cc1ccc(N(Cc2ccco2)C(=O)c2cccc(S(=O)(=O)N3CCOCC3)c2)cc1 [CBK265857] | 96.4 |
| CCN1C(=O)CC2(C1=O)C(=O)N(CCc1cccs1)c1ccccc12 (centres unmarked) [CBK075521] | 91.4 |
| Cc1ccc(-c2nccnc2OCCN2C(=O)c3ccccc3C2=O)c(C)c1 [CBK106981] | 90 |
| CCc1nc2cc(NC(=O)Cn3cc(C)cn3)ccc2n1CC [CBK281608] | 84.9 |
| Nc1cc(S(=O)(=O)O)c2cccnc2c1O [CBK278176] | 75.4 |
| COc1ccc(-n2c(C)c([N+](=O)[O-])c3ccc(O)cc32)cc1 [CBK115330] | 85 |
| CCC1CCCCN1C(=O)c1ccc(C)s1 (centres unmarked) [CBK084526] | 96.6 |
| Nc1nncn1C(=O)c1ccccc1SCc1ccccc1 [CBK270120] | 88.9 |
| Cn1c(-c2ccc(CN3CCCC3)cc2)cc2onc(-c3cccnc3)c2c1=O [CBK048501C] | 99.1 |
| O=C(c1ccccc1)C(Sc1nnc2sc3ccccc3n12)c1ccccc1 (centres unmarked) [CBK265416] | 84.2 |
| O=c1[nH]ccn1CCNc1ccc(-c2ccccc2Oc2ccccc2)cn1 [CBK037665] | 103 |
| O=C(NCCc1cnc[nH]1)NC1CCCCC1 [CBK269975] | 100 |
| O=C(CN1C(=O)N2CCN=C2c2ccccc21)NC1CC1 [CBK283958] | 93.1 |
| Cc1cc(C)nc(NC2=NCCN2C(=S)Nc2ccccc2)n1 [CBK266481] | 95.7 |

| Structure (SMILES) | viability at 28.5 h, 10 µM [%] |
| --- | --- |
| Oc1c(Br)cc2oc3c(c2c1CNc1ccccc1)CCCC3 [CBK160397] | 103 |
| Cc1ccc(CNC(=O)Cn2nnc(-c3ccc(CN4CCCC(C(F)(F)F)C4)cc3)n2)cc1 (centres unmarked) [CBK144562C] | 109 |
| N#C/C(=C/c1ccc(-c2ccc(S(N)(=O)=O)cc2)o1)S(=O)(=O)c1ccc(Cl)cc1 [CBK266383] | 110 |
| COc1ccc(N2CCN(c3nc(NCCO)nc(OC)n3)CC2)cc1 [CBK265478] | 103 |
| CCOC(=O)c1sc(-c2ccc(Br)cc2)nc1O [CBK075087] | 103 |
| Brc1ccsc1-c1csc(-c2ccccc2)n1 [CBK019859] | 102 |
| CCN(CC)C(=O)Cn1nc(C)n2c(cc3sccc32)c1=O [CBK284044] | 88.7 |
| CC(C)CNC(=O)N1CCNC(=O)C1 [CBK155864] | 86.4 |
| Cc1noc(C)c1NC(=O)c1cc2ccccc2[nH]1 [CBK200303] | 95.6 |
| Cc1cccc(N2CCN(CCCC(c3ccc(F)cc3)c3ccc(F)cc3)CC2)n1 [CBK025113C] | 93.9 |
| CCn1cc(Cl)c(C(=O)NC2CCN(c3nc(C)cc(=O)[nH]3)CC2)n1 [CBK304614] | 88.5 |
| COc1ccccc1NC(=O)CSc1nnc(-c2ccncc2)o1 [CBK287743] | 87 |
| Cc1nc([N+](=O)[O-])c(N2CCN(Cc3ccccc3)CC2)n1Cc1ccccc1 [CBK265675] | 88.7 |
| Cc1cccc(CN2CCC(N(C)Cc3nnc(C4CC4)n3C)C2)c1 (centres unmarked) [CBK305165] | 88.5 |
| CCCCNC(=O)CSc1ncccc1C(=O)NCc1cccnc1 [CBK071590] | 91 |
| CC(C)(C)C1CCc2c(sc(NC(=S)NC(=O)c3cc4ccccc4o3)c2C(N)=O)C1 (centres unmarked) [CBK268635] | 95 |
| Fc1ccc(CCNc2ccc3nncn3n2)cc1 [CBK287909] | 88.2 |
| O=C(COc1ccc(C2CCCCC2)cc1)Nc1cccc(-c2nc3ncccc3o2)c1 [CBK264569] | 90.9 |
| COc1ccccc1-c1ncc(OCC(F)(F)F)nc1NC(=O)c1ccco1 [CBK145277] | 98.3 |
| O=C(CSC1=NC(=O)C(c2ccccc2)C(=O)N1)NC1CCCCC1 (centres unmarked) [CBK263804] | 103 |
| CN(C)CCCNC(=O)c1cc2cc(Cl)cc(Cl)c2oc1=O [CBK269132C] | 90.2 |
| COc1cc2c(cc1S(N)(=O)=O)C(=O)CCC2 [CBK010234] | 92.2 |
